This is an account of results in paper PMC8454092 (European Journal of Medicinal Chemistry, 2021).

Broadly, the mortality is the share of the test organisms that died. As a reminder, the IC50 is the point on the concentration scale where inhibition reaches its midpoint. The term CC50 denotes the concentration that lowers cell viability or growth by half.

The test system of one data set is SARS-CoV-2. The data set is classed as cell-based. The note with it: for IC50: read-out: VeroE6 IC50.
The next data set has as its system EBOV trVLP. In kind it is cell-based, Ebola virus. The conditions noted are these: for IC50: read-out: EBOV trVLP IC50.
A further data set has as its system X4 strain of HIV-1. The conditions noted are these: cited from earlier work.
In another data set the test system is SARS-CoV-2 RNA synthesis. In kind it is cell-based.
Another data set deals with EBOV trVLP RNA synthesis. The data set is classed as cell-based, Ebola virus.
The conditions of data set [1]: human.
The test system of the next data set is EBOV infection. The conditions noted are these: in vivo; cited from earlier work.
For a further data set, the system named is Covid-19. The conditions noted are these: human, in vivo; cited from earlier work.
A further data set deals with Ce-FF. The data set is classed as cell-based. The conditions noted are these: read-out: Ce-FF IC50.

For the molecule `CCCCCCCCCCOCCC(=O)O` [4-Oxatetradecanoic acid, reference compound], the “anti-SARS-CoV-2 activity in Vero E6 cells” value (“anti-SARS-CoV-2 activity” below) with SARS-CoV-2 was “did not exhibit any anti-SARS-CoV-2 activity”. For the same molecule, the “activity against EBOV trVLP” value with EBOV trVLP is given as “no inhibitory activity”.
Take `CCCCCCCCCCCCCC(=O)OC[C@@H]1O[C@H](n2cc(F)c(N)nc2=O)CS1` [5′-O-tetradecanoyl derivative of FTC]: the “fold more activity than FTC” value with X4 strain of HIV-1 is given as 19 fold.
Regarding `[N-]=[N+]=NCCCCCCCCCCCC(=O)O` [12-Azidododecanoic acid, reference compound], the “anti-SARS-CoV-2 activity” value in the data set with SARS-CoV-2 is “did not exhibit any anti-SARS-CoV-2 activity”. For the same molecule, the “activity against EBOV trVLP” value in the data set on EBOV trVLP is given as “no inhibitory activity”.
Regarding `CCSCCCCCCCCCCCC(=O)O` [12-thioethyldodecanoic acid, reference compound], in the data set with SARS-CoV-2, the “anti-SARS-CoV-2 activity” value is “did not exhibit any anti-SARS-CoV-2 activity”. In addition, the “activity against EBOV trVLP” value in the data set on EBOV trVLP is reported as “no inhibitory activity”.
Regarding `CCCCCCCCCCCCCC(=O)O[C@@H]1[C@H](O)[C@@H](CO[P@@](=O)(N[C@H](C)C(=O)OCC(CC)CC)Oc2ccccc2)O[C@@]1(C#N)c1ccc2c(N)ncnn12` [Compound 3a, (2R,3R,4R,5R)-2-(4-Aminopyrrolo[2,1-f][1,2,4]triazin-7-yl)-2-cyano-5-((((((R)-1-(2-ethylbutoxy)-1-oxopropan-2-yl)amino)(phenoxy)phosphoryl)oxy)methyl)-4-hydroxytetra-hydrofuran-3-yl tetradecanoate], the “SARS-CoV-2 viral RNA synthesis” value in the data set on SARS-CoV-2 RNA synthesis was “significant reduction in viral RNA synthesis”. Also, the “EBOV trVLP viral RNA synthesis” value with EBOV trVLP RNA synthesis is “significant reduction in viral RNA synthesis”.
Consider `CCCCCCCCCCOCCC(=O)O[C@@H]1[C@H](O)[C@@H](CO[P@@](=O)(N[C@H](C)C(=O)OCC(CC)CC)Oc2ccccc2)O[C@@]1(C#N)c1ccc2c(N)ncnn12` [Compound 3b], for which the “activity against EBOV trVLP” value in the data set on EBOV trVLP is recorded as “comparable with RDV”.
`CCSCCCCCCCCCCCC(=O)O[C@@H]1[C@H](O)[C@@H](CO[P@@](=O)(N[C@H](C)C(=O)OCC(CC)CC)Oc2ccccc2)O[C@@]1(C#N)c1ccc2c(N)ncnn12` [Compound 3e]: in the data set on EBOV trVLP, the “activity against EBOV trVLP” value is given as “comparable with RDV”.
Take `CCCCCCCCCCOCCC(=O)O[C@H]1[C@@H](O)[C@](C#N)(c2ccc3c(N)ncnn23)O[C@@H]1CO[P@@](=O)(N[C@H](C)C(=O)OCC(CC)CC)Oc1ccccc1` [Compound 4b, (2R,3S,4R,5R)-5-(4-Aminopyrrolo[2,1-f][1,2,4]triazin-7-yl)-5-cyano-2-((((((R)-1-(2-ethylbutoxy)-1-oxopropan-2-yl)amino)(phenoxy)phosphoryl)oxy)methyl)-4-hydroxy-tetrahydrofuran-3-yl-3-(decyloxy)propanoate]: in the data set on EBOV trVLP, the “activity against EBOV trVLP” value is listed as “comparable activity with RDV”. The “SARS-CoV-2 viral RNA synthesis” value in the data set with SARS-CoV-2 RNA synthesis is on record as “significant reduction in viral RNA synthesis”. The “EBOV trVLP viral RNA synthesis” value in the data set with EBOV trVLP RNA synthesis was “significant reduction in viral RNA synthesis”.
For the molecule `CCC(CC)COC(=O)[C@@H](C)N[P@](=O)(OC[C@H]1O[C@@](C#N)(c2ccc3c(N)ncnn23)[C@H](O)[C@@H]1OC(=O)CCCCCCCCCCCN=[N+]=[N-])Oc1ccccc1` [Compound 4c, (2R,3S,4R,5R)-5-(4-Aminopyrrolo[2,1-f][1,2,4]triazin-7-yl)-5-cyano-2-((((((R)-1-(2-ethylbutoxy)-1-oxopropan-2-yl)amino)(phenoxy)phosphoryl)oxy)methyl)-4-hydroxy-tetrahydrofuran-3-yl-12-azidododecanoate], in [1], the “active triphosphate metabolite observed at 8 h” value worked out at 11.3%, the “active triphosphate metabolite observed at 12 h” value was determined as 10.04% and the “active triphosphate metabolite observed at 24 h” value was 19.01%.
For the molecule `CCCCCCCCCCCCCC(=O)O[C@H]1[C@@H](OC(=O)CCCCCCCCCCCCC)[C@](C#N)(c2ccc3c(N)ncnn23)O[C@@H]1CO[P@@](=O)(N[C@H](C)C(=O)OCC(CC)CC)Oc1ccccc1` [Compound 5a, ((2R,3R,4R,5R)-2-(4-Aminopyrrolo[2,1-f][1,2,4]triazin-7-yl)-2-cyano-5-((((((R)-1-(2-ethylbutoxy)-1-oxopropan-2-yl)amino)(phenoxy)phosphoryl)oxy)methyl)tetrahydro-furan-3,4-diyl ditetradecanoate], the “SARS-CoV-2 viral RNA synthesis” value in the data set on SARS-CoV-2 RNA synthesis was “significant reduction in viral RNA synthesis was observed for all compounds apart from disubstituted compound 5a”.
`CCCCCCCCCCCCCC(=O)O` [Myristic acid, reference compound]: the “anti-SARS-CoV-2 activity” value in the data set on SARS-CoV-2 was “did not exhibit any anti-SARS-CoV-2 activity”. Besides, in the data set with EBOV trVLP, the “activity against EBOV trVLP” value is given as “no inhibitory activity”.
With `CCC(CC)COC(=O)[C@H](C)N[P@](=O)(OC[C@H]1O[C@@](C#N)(c2ccc3c(N)ncnn23)[C@H](O)[C@@H]1O)Oc1ccccc1` [RDV, remdesivir, reference compound], the “SARS-CoV-2 viral RNA synthesis” value in the data set on SARS-CoV-2 RNA synthesis is on record as “significant reduction in viral RNA synthesis”. Also, the “EBOV trVLP viral RNA synthesis” value with EBOV trVLP RNA synthesis is “significant reduction in viral RNA synthesis”. Moreover, in data set [1], the “active triphosphate metabolite observed at 12 h” value is reported as “approximately 22.2%”, the “active triphosphate metabolite observed at 24 h” value was 26.3% and the “degradation after 1 h” value is given as “around 13%”. In addition, the mortality in the data set on EBOV infection is 53%. In addition, in the data set on Covid-19, the “median time to recovery” value is listed as 11 days and the mortality rate was 7.1%.
Regarding “(2R,3R,4R,5R)-2-(4-Aminopyrrolo[2,1-f][1,2,4]triazin-7-yl)-2-cyano-5-((((((R)-1-(2-ethylbutoxy)-1-oxopropan-2-yl)amino)(phenoxy)phosphoryl)oxy)methyl)-4-hydroxytetra hydrofuran-3-yl palmitate [Compound 3c]”, the results for the IC50 in the data set with SARS-CoV-2, in the data set with EBOV trVLP and in the data set with Ce-FF were 4.6 µM, 500 nM and > 50 µM, respectively. Moreover, the values for the CC50 in the data set on Vero E6 cells and in the data set on Huh-7 cells were > 50 µM and 27 µM, respectively.
As to “(2R,3R,4R,5R)-2-(4-Aminopyrrolo[2,1-f][1,2,4]triazin-7-yl)-2-cyano-5-((((((R)-1-(2-ethylbutoxy)-1-oxopropan-2-yl)amino)(phenoxy)phosphoryl)oxy)methyl)tetrahydrofuran-3,4-diyl ditetradecanoate [Compound 5b]”, the 50% inhibitory concentration (IC50) in the data set with SARS-CoV-2 was > 50 µM; in the data set with EBOV trVLP it was > 50000 nM; in the data set with Ce-FF, > 50 µM. The “activity against EBOV trVLP” value in the data set with EBOV trVLP is recorded as “no inhibitory activity”. In the data set on EBOV trVLP RNA synthesis, the “EBOV trVLP viral RNA synthesis” value is on record as “significant reduction in viral RNA synthesis was observed for all compounds apart from disubstituted compound 5b”. Besides, the CC50 with Vero E6 cells and in the data set on Huh-7 cells was > 50 µM in each case.

B1: MAB114 (antibody, chains of the INN, looked up, V domains shown)
VH: EVQLVESGGGLIQPGGSLRLSCAASGFALRMYDMHWVRQTIDKRLEWVSAVGPSGDTTYADSVKGRFAVSRENAKNSLSLQMNSLTAGDTAIYYCVRSDRGVAGLFDSWGQGILVTVSS
VL: DIQMTQSPSSLSASVGDRITITCRASQAFDNYVAWYQQRPGKVPKLLISAASALHAGVPSRFSGSGSGTHFTLTISSLQPEDVATYYCQNYNSAPLTFGGGTKVEIK
As to B1, the mortality in the data set with EBOV infection was 35%.
